Square brackets hold non-standard residues; d marks the D form. Peptide text beside a SMILES is read from it. * marks the point of attachment. Sta = CC(C)C[C@H](N)[C@@H](O)CC(=O)O; Isovaleryl = CC(C)CC(=O)*
Legend:
[1] = system: hog renin; conditions: after the injection of hog renin into nephrectomized rats; cited from earlier work
[2] = system: renin enzyme prepared from hog kidney; experiment: Renin assay (solid phase radioimmunoassay of angiotensin I); format: biochemical; conditions: ratio of renin I50 to pepsin I50
Experimental: The compound of Example 1 was evaluated against renin, employing a solid phase radioimmunossay adapted and modified from the assay of Ikedo et al., W. of Clinical Endocrinology and Metabolism, 54, 423-428, 1982), and pepsin assays as illustrated below:
Ten μl of the test inhibitor/broth extract from Example 1 was mixed with 5 μl of 0.11M phenylmethylsulfonyl fluoride and 0.25 ml of 0.1M potassium phosphate buffer, pH 7.0, containing 0.05% sodium azide and one mg/ml of bovine serum albumin. Twenty μl of 2 μg renin enzyme prepared from hog kidney was added and the mixture was incubated at 37° C. for 20 minutes. The enzyme reaction was initiated by adding 20 μl of substrate solution which was prepared by dissolving 4 mg of angiotensinogen in 4 ml of 0.1M potassium phosphate buffer, pH 7.0, containing 0.05% sodium azide and 1 mg/ml of BSA.
After 20 minutes' incubation at 37° C., the enzyme reaction was stopped by the addition of 100 μl of ^125 I-angiotensin I tracer-pepstatin. […] Two ml of water was then added to each tube and the solution was aspirated, with the tube with the ball being counted in a γ-counter.
The activity of the test compound was calculated based on the standard curve of known amount of angiotensin I.

CC(C)CC(=O)N[C@H](C(=O)N[C@H](C(=O)N[C@@H](CC(C)C)[C@@H](O)CC(=O)N[C@@H](C)C(=O)N[C@@H](CC(C)C)[C@@H](O)CC(=O)O)C(C)C)C(C)C [Pepstatin A] (Isovaleryl-VV[Sta]A[Sta]-OH)
blood pressure in vivo [1]: reduces blood pressure | I50 ratio of renin/pepsin [2]: 1160
